Data reported in patent publication US11168102B1, “Bicyclic heteroaryl compounds and uses thereof” (Revolution Medicines, Inc., priority 2019, dated 2021).
Like-named read-outs stand apart in the source and are kept apart here.

Tested on: cellular pERK in PC-9 cells (EGFR Ex19Del)
Assay: Potency assay: pERK (AlphaLISA SureFire Ultra p-ERK1/2) in PC-9 cells
Format: cell-based
Details: read-out: SOS1 pERK IC50
[1] = PC-9 cells (EGFR Ex19Del), 1 hour incubation, AlphaLISA SureFire Ultra p-ERK1/2
[2] = Homo sapiens, PC-9, 1 h, PC-9 cells (EGFR Ex19Del), 1 hour incubation, AlphaLISA SureFire Ultra p-ERK1/2

IC50 [1] [nM] | IC50 [2] [nM] | Structure (SMILES) | also measured
448 | – | C[C@@H](Nc1ncnc2c1cc(C1(C#N)CCP(C)(=O)CC1)c(=O)n2C)c1cccc(C(F)F)c1F (stereo partly drawn) [Example 36-12] | –
81.2 | – | C[C@@H](Nc1ncnc2c1cc(C1(C#N)CCP(C)(=O)CC1)c(=O)n2C)c1cccc(C(F)F)c1F (stereo partly drawn) [Example 36-13] | –
207 | – | C[C@@H](Nc1ncnc2c1cc(C1(C#N)CCS(=O)(=O)C1)c(=O)n2C)c1cccc(C(F)F)c1F (stereo partly drawn) [Example 36-14] | –
58.9 | – | C[C@@H](Nc1ncnc2c1cc(C1(C#N)CCS(=O)(=O)C1)c(=O)n2C)c1cccc(C(F)F)c1F (stereo partly drawn) [Example 36-15] | –
– | – | C[C@@H](Nc1ncnc2c1cc(C1(C#N)CCN(C3COC3)CC1)c(=O)n2C)c1cccc(C(F)F)c1F [Example 36-16] | IC50 (Homo sapiens, PC-9, 1 h): 222 nM
– | 49.9 | C[C@@H](Nc1ncnc2c1cc(C1(C)CCS(=O)(=O)CC1)c(=O)n2C)c1cccc(C(F)F)c1F [Example 37, 4-(4-{[(1R)-1-[3-(difluoromethyl)-2-fluorophenyl]ethyl]amino}-8-methyl-7-oxo-7H,8H-pyrido[2,3-d]pyrimidin-6-yl)-4-methyl-1λ^6-thiane-1,1-dione] | –
– | 137 | CC(=O)N1CCC(c2cc3c(N[C@H](C)c4cccc(C(F)F)c4C(F)F)ncnc3n(C)c2=O)CC1 [Example 38, 6-(1-acetylpiperidin-4-yl)-4-{[(1R)-1-[2,3-bis(difluoromethyl)phenyl]ethyl]amino}-8-methyl-7H,8H-pyrido[2,3-d]pyrimidin-7-one] | –
– | 1560 | CC(=O)N1CCC(c2cc3c(N[C@H](C)c4cccc(C(F)F)c4CF)ncnc3n(C)c2=O)CC1 [Example 39, 6-(1-acetylpiperidin-4-yl)-4-{[(1R)-1-[3-(difluoromethyl)-2-(fluoromethyl)phenyl]ethyl]amino}-8-methyl-7H,8H-pyrido[2,3-d]pyrimidin-7-one] | –
– | 1370 | C[C@@H](Nc1ncnc2c1cc(C1=CCS(=O)(=O)CC1)c(=O)n2C)c1cccc(C(F)(F)C#N)c1 [Example 40, 2-{3-[(1R)-1-{[6-(1,1-dioxo-3,6-dihydro-2H-1λ^6-thiopyran-4-yl)-8-methyl-7-oxo-7H,8H-pyrido[2,3-d]pyrimidin-4-yl]amino}ethyl]phenyl}-2,2-difluoroacetonitrile] | –
– | 4480 | C[C@@H](Nc1ncnc2c1cc(C1=CCS(=O)(=O)CC1)c(=O)n2C)c1cccc(C(F)(F)C#N)c1F [Example 41, 2-{3-[(1R)-1-{[6-(1,1-dioxo-3,6-dihydro-2H-1λ^6-thiopyran-4-yl)-8-methyl-7-oxo-7H,8H-pyrido[2,3-d]pyrimidin-4-yl]amino}ethyl]-2-fluorophenyl}-2,2-difluoroacetonitrile] | –
– | > 10000 | C[C@H](Nc1ncnc2c1cc(C1=CCS(=O)(=O)CC1)c(=O)n2C)c1cccc(C(F)(F)C#N)c1F [Example 41-1] | –
– | 242 | C[C@@H](Nc1ncnc2c1cc(C1=CCS(=O)(=O)CC1)c(=O)n2C)c1cccc(C(F)(F)CN)c1F [Example 42, 4-(4-{[(1R)-1-[3-(2-amino-1,1-difluoroethyl)-2-fluorophenyl]ethyl]amino}-8-methyl-7-oxo-7H,8H-pyrido[2,3-d]pyrimidin-6-yl)-3,6-dihydro-2H-1λ^6-thiopyran-1,1-dione] | –
– | > 7290 | CC(=O)N1CCC(c2cc3c(N[C@H](C)c4cc(C(F)F)cc(C5(F)CNC5)c4)ncnc3n(C)c2=O)CC1 [Example 43, 6-(1-acetyl-4-piperidyl)-4-[[(1R)-1-[3-(difluoromethyl)-5-(3-fluoroazetidin-3-yl)phenyl]ethyl]amino]-8-methyl-pyrido[2,3-d]pyrimidin-7-one] | –
– | 179 | CC(=O)N1CCC(c2cc3c(N[C@H](C)c4cc(C(F)(F)F)cc(N)n4)ncnc3n(C)c2=O)CC1 [Example 44, 6-(1-acetyl-4-piperidyl)-4-[1-[6-amino-4-(trifluoromethyl)-2-pyridyl]ethylamino]-8-methyl-pyrido[2,3-d]pyrimidin-7-one] | –
– | 1520 | CC(=O)N1CCC(c2cc3c(N[C@H](C)c4cc(C(F)F)c5cc[nH]c5c4)ncnc3n(C)c2=O)CC1 [Example 48, 6-(1-acetyl-4-piperidyl)-4-[[(1R)-1-[4-(difluoromethyl)-1H-indol-6-yl]ethyl]amino]-8-methyl-pyrido[2,3-d]pyrimidin-7-one] | –
70.6 | – | CN=S1(=O)CCC(F)(c2cc3c(N[C@H](C)c4cccc(C(F)F)c4F)ncnc3n(C)c2=O)CC1 (stereo partly drawn) [Example 52, 4-(((R)-1-(3-(difluoromethyl)-2-fluorophenyl)ethyl)amino)-6-((1R,4r)-4-fluoro-1-(methylimino)-1-oxidohexahydro-1λ-thiopyran-4-yl)-8-methylpyrido[2,3-d]pyrimidin-7(8H)-one] | –

IC50 [1] [nM] | IC50 [2] [nM] | Structure (SMILES) | also measured
– | 36.7 | COn1c(=O)c(C2CCS(=O)(=O)CC2)cc2c(N[C@H](C)c3cccc(C(F)F)c3F)ncnc21 [Example 53, 4-(4-{[(1R)-1-[3-(difluoromethyl)-2-fluorophenyl]ethyl]amino}-8-methoxy-7-oxo-7H,8H-pyrido[2,3-d]pyrimidin-6-yl)-1λ^6-thiane-1,1-dione] | –
– | 109 | CC(=O)N1CCC(c2cc3c(N[C@H](C)c4cccc(C(F)(F)C5CN(C6CC6)CCO5)c4F)ncnc3n(C)c2=O)CC1 (stereo partly drawn) [Example 55, 6-(1-acetyl-4-piperidyl)-4-[[(1R)-1-[3-[(4-cyclopropylmorpholin-2-yl)-difluoro-methyl]-2-fluoro-phenyl]ethyl]amino]-8-methyl-pyrido[2,3-d]pyrimidin-7-one] | –
– | 50 | C[C@@H](Nc1ncnc2c1cc(C1(F)CCS(=O)(=NC3CC3)CC1)c(=O)n2C)c1cccc2c1OCC2(F)F (stereo partly drawn) [Example 56-4] | –
44.1 | – | C[C@@H](Nc1ncnc2c1cc(C1(F)CCS(=O)(=NC3CC3)CC1)c(=O)n2C)c1cccc2c1OCC2(F)F (stereo partly drawn) [Example 56-5] | –
28.8 | – | C[C@@H](Nc1ncnc2c1cc(C1(C#N)CCS(=O)(=NC3CC3)CC1)c(=O)n2C)c1cccc(C(F)F)c1F (stereo partly drawn) [Example 59, (1S,4s)-1-(cyclopropylimino)-4-(4-(((R)-1-(3-(difluoromethyl)-2-fluorophenyl)ethyl)amino)-8-methyl-7-oxo-7,8-dihydropyrido[2,3-d]pyrimidin-6-yl)hexahydro-1λ^6-thiopyran-4-carbonitrile 1-oxide] | –
– | 23.1 | C[C@@H](Nc1ncnc2c1cc(C1CCS(=O)(=NC3COC3)CC1)c(=O)n2C)c1cccc(C(F)F)c1F (stereo partly drawn) [Example 60, 4-[[(1R)-1-[3-(difluoromethyl)-2-fluoro-phenyl]ethyl]amino]-8-methyl-6-[1-(oxetan-3-ylimino)-1-oxo-thian-4-yl]pyrido[2,3-d]pyrimidin-7-one] | –
– | 647 | COc1ccc(COC2(c3cc4c(N[C@H](C)c5cccc(C(F)F)c5F)ncnc4n(C)c3=O)CC2)cc1 [Example 61, 4-[[(1R)-1-[3-(difluoromethyl)-2-fluoro-phenyl]ethyl]amino]-6-[1-[(4-methoxyphenyl)methoxy]cyclopropyl]-8-methyl-pyrido[2,3-d]pyrimidin-7-one] | –
– | 262 | COC1(c2cc3c(N[C@H](C)c4nccc(C(F)F)c4F)ncnc3n(C)c2=O)CCN(C(C)=O)CC1 [Example 62, 6-(1-acetyl-4-methoxy-4-piperidyl)-4-[[(1R)-1-[4-(difluoromethyl)-3-fluoro-2-pyridyl]ethyl]amino]-8-methyl-pyrido[2,3-d]pyrimidin-7-one] | –
– | > 10000 | C[C@@H](Nc1ncnc2c1cc(C1=CCS(=O)(=O)CC1)c(=O)n2C)c1cccc(C(F)F)c1CC#N [Example 63, 2-[2-(difluoromethyl)-6-[(1R)-1-[[6-(1,1-dioxo-3,6-dihydro-2H-thiopyran-4-yl)-8-methyl-7-oxo-pyrido[2,3-d]pyrimidin-4-yl]amino]ethyl]phenyl]acetonitrile] | –
66.8 | – | C[C@@H](Nc1ncnc2c1cc(C1=CCS(=O)(=NC3COC3)CC1)c(=O)n2C)c1cccc(C(F)F)c1F (stereo partly drawn) [Example 65, 4-(((R)-1-(3-(difluoromethyl)-2-fluorophenyl)ethyl)amino)-8-methyl-6-((S)-1-(oxetan-3-ylimino)-1-oxido-1,2,3,6-tetrahydro-1λ^6-thiopyran-4-yl)pyrido[2,3-d]pyrimidin-7(8H)-one] | –
29.1 | – | C[C@@H](Nc1ncnc2c1cc(C1=CCS(=O)(=NC3COC3)CC1)c(=O)n2C)c1cccc(C(F)F)c1F (stereo partly drawn) [Example 66, 4-(((R)-1-(3-(difluoromethyl)-2-fluorophenyl)ethyl)amino)-8-methyl-6-((R)-1-(oxetan-3-ylimino)-1-oxido-1,2,3,6-tetrahydro-1λ^6-thiopyran-4-yl)pyrido[2,3-d]pyrimidin-7(8H)-one] | –
– | 16.1 | C[C@@H](Nc1ncnc2c1cc(C1CCS(=N)(=O)CC1)c(=O)n2C)c1cccc(C(F)F)c1F (stereo partly drawn) [Example 67, 4-[[(1R)-1-[3-(difluoromethyl)-2-fluoro-phenyl]ethyl]amino]-6-(1-imino-1-oxo-thian-4-yl)-8-methyl-pyrido[2,3-d]pyrimidin-7-one] | –
– | 24.1 | COC1(c2cc3c(N[C@H](C)c4cccc(C(F)F)c4F)ncnc3n(C)c2=O)CCC2(CC1)CS(=O)(=NC1CC1)C2 (stereo partly drawn) [Example 68-1] | –
– | 136 | COC1(c2cc3c(C[C@H](C)c4cccc(C(F)F)c4F)ncnc3n(C)c2=O)CC2(C1)CS(=O)(=NC1CC1)C2 (stereo partly drawn) [Example 68-2] | –
100 | – | COC1(c2cc3c(C[C@H](C)c4cccc(C(F)F)c4F)ncnc3n(C)c2=O)CC2(C1)CS(=O)(=NC1CC1)C2 (stereo partly drawn) [Example 68-3] | –
– | 121 | CC(=O)NC12CC(c3cc4c(N[C@H](C)c5cccc(C(F)F)c5F)ncnc4n(C)c3=O)(C1)C2 [Example 70, N-[3-(4-{[(1R)-1-[3-(difluoromethyl)-2-fluorophenyl]ethyl]amino}-8-methyl-7-oxo-7H,8H-pyrido[2,3-d]pyrimidin-6-yl)bicyclo[1.1.1]pentan-1-yl]acetamide] | –

Structure (SMILES) | IC50 [1] [nM] | IC50 [2] [nM] | also measured
C[C@@H](Nc1ncnc2c1cc(C1(F)CCS(=O)(=NC3CC3)CC1)c(=O)n2C)c1cccc(C(F)F)c1F (stereo partly drawn) [Example 56, 6-((1R,4r)-1-(cyclopropylimino)-4-fluoro-1-oxidohexahydro-1λ^6-thiopyran-4-yl)-4-(((R)-1-(3-(difluoromethyl)-2-fluorophenyl)ethyl)amino)-8-methylpyrido[2,3-d]pyrimidin-7(8H)-one] | – | 57.2 | –
